PubChem BioAssay AID2060900 (Molecular Pharmacology Branch, DTP, NCI, 2025)
“And” between values parts separate entries of the source, which are not always exact repeats. Equal entries are not always repeated.

Tested on: 521955-158-R2-J5-PDC complex spheroids, viability
Experiment: Anticancer human tumor 521955-158-R2-J5-PDC patient-derived pancreatic carcinoma cell line growth inhibition [RAS]
Conditions: for viability, T/C: stronger effect = lower value; active = viability on the fitted dose curve at most 10% of control; inactive = the rest
In short: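 Multi-cell-type spheroids: tumor cells plus HUVEC endothelial cells and mesenchymal stem cells. RAS-pathway inhibitors were combined with targeted agents, each dosed in half-log steps down from clinical Cmax, or from 10 microM when Cmax was unknown.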
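Also: compound exposure lasted seven days before the viability read.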
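For viability, T/C in this document: spheroids also contain HUVEC endothelial cells and mesenchymal stem cells as stroma.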

CC(C)n1nc(-c2ccc3oc(N)nc3c2)c2c(N)ncnc21 + CCn1c(-c2cc(N3CCN(C)CC3)cnc2C(C)OC)c2c3cc(ccc31)-c1csc(n1)CC(NC(=O)C1CC1C)C(=O)N1CCCC(N1)C(=O)OCC(C)(C)C2
active: viability, T/C (second compound 0.003 µM, first compound 0.1 µM) 7.9% | viability, T/C (second compound 0.00949 µM, first compound 0.1 µM) 6.83% | viability, T/C (second compound 0.03 µM, first compound 0.1 µM) 6.04% | viability, T/C (second compound 0.0949 µM, first compound 0.0316 µM) 10% | viability, T/C (second compound 0.0949 µM, first compound 0.1 µM) 3.64% | viability, T/C (second compound 0.3 µM, first compound 0.001 µM) 10.4% | viability, T/C (second compound 0.3 µM, first compound 0.00316 µM) 7.93% | viability, T/C (second compound 0.3 µM, first compound 0.01 µM) 7.87% | viability, T/C (second compound 0.3 µM, first compound 0.0316 µM) 6.76% | viability, T/C (second compound 0.3 µM, first compound 0.1 µM) 3.75%
< 0.316 nM: IC50 (curve of first compound, second compound 0.000949 µM) | IC50 (curve of first compound, second compound 0.003 µM) | IC50 (curve of first compound, second compound 0.00949 µM) | IC50 (curve of first compound, second compound 0.03 µM) | IC50 (curve of first compound, second compound 0.0949 µM) | IC50 (curve of first compound, second compound 0.3 µM)
inactive: viability, T/C (second compound 0.000949 µM, first compound 0.000316 µM) 38.5% | viability, T/C (second compound 0.000949 µM, first compound 0.001 µM) 40.2% | viability, T/C (second compound 0.000949 µM, first compound 0.00316 µM) 37.6% | viability, T/C (second compound 0.000949 µM, first compound 0.01 µM) 39.8% | viability, T/C (second compound 0.000949 µM, first compound 0.0316 µM) 22.7% | viability, T/C (second compound 0.000949 µM, first compound 0.1 µM) 21.2% | viability, T/C (second compound 0.003 µM, first compound 0.000316 µM) 34.6% | viability, T/C (second compound 0.003 µM, first compound 0.001 µM) 38.8% | viability, T/C (second compound 0.003 µM, first compound 0.00316 µM) 28.7% | viability, T/C (second compound 0.003 µM, first compound 0.01 µM) 22.6% | viability, T/C (second compound 0.003 µM, first compound 0.0316 µM) 11.2% | viability, T/C (second compound 0.00949 µM, first compound 0.000316 µM) 31.3% | viability, T/C (second compound 0.00949 µM, first compound 0.001 µM) 30.2% | viability, T/C (second compound 0.00949 µM, first compound 0.00316 µM) 34.9% | viability, T/C (second compound 0.00949 µM, first compound 0.01 µM) 21.4% | viability, T/C (second compound 0.00949 µM, first compound 0.0316 µM) 14.2% | viability, T/C (second compound 0.03 µM, first compound 0.000316 µM) 25.3% | viability, T/C (second compound 0.03 µM, first compound 0.001 µM) 22% | viability, T/C (second compound 0.03 µM, first compound 0.00316 µM) 20.4% | viability, T/C (second compound 0.03 µM, first compound 0.01 µM) 17.9% | viability, T/C (second compound 0.03 µM, first compound 0.0316 µM) 11.7% | viability, T/C (second compound 0.0949 µM, first compound 0.000316 µM) 11.8% | viability, T/C (second compound 0.0949 µM, first compound 0.001 µM) 11% | viability, T/C (second compound 0.0949 µM, first compound 0.00316 µM) 15.8% | viability, T/C (second compound 0.0949 µM, first compound 0.01 µM) 12.2% | viability, T/C (second compound 0.3 µM, first compound 0.000316 µM) 9.8%

C=CC(=O)Nc1cc(Nc2nccc(-c3cn(C)c4ccccc34)n2)c(OC)cc1N(C)CCN(C)C
965 nM and 466 nM and > 1000 nM: IC50 (curve of compound)
inactive: viability, T/C (compound 0.00316 µM) 101% [middle of 4 runs] | viability, T/C (compound 0.0316 µM) 94.7% [middle of 4 runs] | viability, T/C (compound 0.1 µM) 79.1% [middle of 4 runs]

CCn1c(-c2cccnc2C(C)OC)c2c3cc(ccc31)N1CCOC(CC(NC(=O)C(C(C)C)N(C)C(=O)C3(F)CCN(C(=O)C#CC(C)(C)N(C)C)CC3)C(=O)N3CCCC(N3)C(=O)OCC(C)(C)C2)C1 (centres undefined)
> 300 nM: IC50 (compound alone, run of 05/20/2024)
inactive: viability, T/C (compound 0.000949 µM) 101% [middle of 8 runs] | viability, T/C (compound 0.003 µM) 101% [middle of 8 runs] | viability, T/C (compound 0.03 µM) 94.8% [middle of 8 runs] | viability, T/C (compound 0.3 µM) 77.3% [middle of 8 runs]

CCC(CC)c1cc(NC2CCC(N)C2)n2nccc2n1 (centres undefined) + C#Cc1c(F)ccc2cc(O)cc(-c3ncc4c(N5CC6CCC(C5)N6)nc(OCC56CCCN5CC(F)C6)nc4c3F)c12
active: viability, T/C (second compound 0.0316 µM, first compound 3.16 µM) 5.12% | viability, T/C (second compound 0.0316 µM, first compound 10 µM) 10.6% | viability, T/C (second compound 1 µM, first compound 3.16 µM) 7.46% | viability, T/C (second compound 1 µM, first compound 10 µM) 10.2% | viability, T/C (second compound 3.16 µM, first compound 3.16 µM) 4.58% | viability, T/C (second compound 3.16 µM, first compound 10 µM) 13.5% | viability, T/C (second compound 10 µM, first compound 3.16 µM) 4.49% | viability, T/C (second compound 10 µM, first compound 10 µM) 9.43%
1080 nM: IC50 (curve of first compound, second compound 0.316 µM)
inactive: viability, T/C (second compound 0.0316 µM, first compound 0.0316 µM) 62.2% | viability, T/C (second compound 0.0316 µM, first compound 0.1 µM) 56% | viability, T/C (second compound 0.0316 µM, first compound 0.316 µM) 68.2% | viability, T/C (second compound 0.0316 µM, first compound 1 µM) 77.6% | viability, T/C (second compound 0.1 µM, first compound 0.0316 µM) 51.8% | viability, T/C (second compound 0.1 µM, first compound 0.1 µM) 59.7% | viability, T/C (second compound 0.1 µM, first compound 0.316 µM) 65.7% | viability, T/C (second compound 0.1 µM, first compound 1 µM) 55.8% | viability, T/C (second compound 0.1 µM, first compound 3.16 µM) 8.07% | viability, T/C (second compound 0.1 µM, first compound 10 µM) 12.2% | viability, T/C (second compound 0.316 µM, first compound 0.0316 µM) 56.4% | viability, T/C (second compound 0.316 µM, first compound 0.1 µM) 72.5% | viability, T/C (second compound 0.316 µM, first compound 0.316 µM) 56.3% | viability, T/C (second compound 0.316 µM, first compound 1 µM) 53% | viability, T/C (second compound 0.316 µM, first compound 3.16 µM) 7.76% | viability, T/C (second compound 0.316 µM, first compound 10 µM) 12.5% | viability, T/C (second compound 1 µM, first compound 0.0316 µM) 47.6% | viability, T/C (second compound 1 µM, first compound 0.1 µM) 54.1% | viability, T/C (second compound 1 µM, first compound 0.316 µM) 64% | viability, T/C (second compound 1 µM, first compound 1 µM) 48.1% | viability, T/C (second compound 3.16 µM, first compound 0.0316 µM) 53.8% | viability, T/C (second compound 3.16 µM, first compound 0.1 µM) 61.7% | viability, T/C (second compound 3.16 µM, first compound 0.316 µM) 52.2% | viability, T/C (second compound 3.16 µM, first compound 1 µM) 49.7% | viability, T/C (second compound 10 µM, first compound 0.0316 µM) 46% | viability, T/C (second compound 10 µM, first compound 0.1 µM) 51.2% | viability, T/C (second compound 10 µM, first compound 0.316 µM) 45% | viability, T/C (second compound 10 µM, first compound 1 µM) 33%
1160 nM: IC50 (curve of first compound, second compound 0.1 µM)
737 nM: IC50 (curve of first compound, second compound 1 µM)
1370 nM: IC50 (curve of first compound, second compound 0.0316 µM)
935 nM: IC50 (curve of first compound, second compound 3.16 µM)
31.6 nM: IC50 (curve of first compound, second compound 10 µM)

C#Cc1c(F)ccc2cc(O)cc(-c3ncc4c(N5CC6CCC(C5)N6)nc(OCC56CCCN5CC(F)C6)nc4c3F)c12 (centres undefined)
inactive: viability, T/C (compound 0.0316 µM) 64.5% [middle of 8 runs] | viability, T/C (compound 0.1 µM) 57.3% [middle of 8 runs] | viability, T/C (compound 0.316 µM) 53.9% [middle of 8 runs] | viability, T/C (compound 1 µM) 51.1% [middle of 8 runs] | viability, T/C (compound 3.16 µM) 45.4% [middle of 8 runs] | viability, T/C (compound 10 µM) 35.1% [middle of 8 runs]
